Measured values reported in ChEMBL document CHEMBL1201862, “PubChem BioAssay data set” (2004).
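Five compound concentrations were applied to cells in 96-well plates for 48 hours; endpoints were derived by simple linear interpolation of the resulting dose-response curve. The concentration for 50% growth inhibition is given as GI50.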 Active and inactive are the calls of the source. Rule as the data show it: active = GI50 up to about 1.1 µM and inactive = higher.

Legend:
Experiment in all cases: growth of human tumour cells (NCI), 48 h
CAKI-1 = system: CAKI-1
MCF7 = system: MCF7
NCI-H522 = system: NCI-H522
SK-MEL-28 = system: SK-MEL-28
SNB-19 = system: SNB-19
SK-OV-3 = system: SK-OV-3
NCI-H23 = system: NCI-H23
IGROV-1 = system: IGROV-1
BT-549 = system: BT-549
LOX IMVI = system: LOX IMVI
RXF 393 = system: RXF 393
K562 = system: K562
UACC-257 = system: UACC-257
SF-268 = system: SF-268
HCT-116 = system: HCT-116
SF-295 = system: SF-295
HOP-92 = system: HOP-92
MDA-N = system: MDA-N
SNB-75 = system: SNB-75
NCI-H460 = system: NCI-H460

SMILES	GI50 (CAKI-1)	GI50 (MCF7)	GI50 (NCI-H522)	GI50 (SK-MEL-28)	GI50 (SNB-19)	GI50 (SK-OV-3)	GI50 (NCI-H23)	GI50 (IGROV-1)	GI50 (BT-549)	GI50 (LOX IMVI)	GI50 (RXF 393)	GI50 (K562)	GI50 (UACC-257)	GI50 (SF-268)	GI50 (HCT-116)	GI50 (SF-295)	GI50 (HOP-92)	GI50 (MDA-N)	GI50 (SNB-75)	GI50 (NCI-H460)
CN(CCc1ccc(Cl)c(Cl)c1)[C@H]1CCCC[C@H]1N1CCCC1	> 100 µM (inactive)	> 100 µM (inactive)	> 100 µM (inactive)	> 100 µM (inactive)	> 100 µM (inactive)	> 100 µM (inactive)	> 100 µM (inactive)	> 100 µM (inactive)	> 100 µM (inactive)	> 100 µM (inactive)	> 100 µM (inactive)	> 100 µM (inactive)	> 100 µM (inactive)	> 100 µM (inactive)	> 100 µM (inactive)	> 100 µM (inactive)	> 100 µM (inactive)	> 100 µM (inactive)		
Fc1cc(-c2ncc(Cl)cc2Cl)c2cccccc1-2	> 100 µM (inactive)	35.7 µM (inactive)	> 100 µM (inactive)		> 100 µM (inactive)	> 100 µM (inactive)	> 100 µM (inactive)	> 100 µM (inactive)	> 100 µM (inactive)	> 100 µM (inactive)	92.5 µM (inactive)		> 100 µM (inactive)	> 100 µM (inactive)	> 100 µM (inactive)	> 100 µM (inactive)		> 100 µM (inactive)	> 100 µM (inactive)	> 100 µM (inactive)
COc1ccc2[nH]c3c(c2c1)CCc1c(OC)cccc1-3	> 100 µM (inactive)	> 100 µM (inactive)	87.1 µM (inactive)	> 100 µM (inactive)	> 100 µM (inactive)	> 100 µM (inactive)	> 100 µM (inactive)	> 100 µM (inactive)	> 100 µM (inactive)	> 100 µM (inactive)		53.6 µM (inactive)	> 100 µM (inactive)	> 100 µM (inactive)	> 100 µM (inactive)	> 100 µM (inactive)	> 100 µM (inactive)	> 100 µM (inactive)	70 µM (inactive)	> 100 µM (inactive)
OCC1OC(O[C@H]2CN3[C@H](O)[C@@H](O)[C@H](O)[C@H]3C2O)C(O)C(O)C1O (some centres undefined)	> 100 µM (inactive)	> 100 µM (inactive)	> 100 µM (inactive)	> 100 µM (inactive)	> 100 µM (inactive)	> 100 µM (inactive)	> 100 µM (inactive)	> 100 µM (inactive)	> 100 µM (inactive)	> 100 µM (inactive)	> 100 µM (inactive)	> 100 µM (inactive)	> 100 µM (inactive)	> 100 µM (inactive)	> 100 µM (inactive)	> 100 µM (inactive)	> 100 µM (inactive)	> 100 µM (inactive)		> 100 µM (inactive)
S=C1/C(=N/c2ccccc2)N(c2ccccc2)/C(=N\c2cccc[n+]2Cc2ccccc2)N1c1ccccc1	18.9 µM (inactive)	18.9 µM (inactive)	13.3 µM (inactive)	17.6 µM (inactive)	15.4 µM (inactive)	21.7 µM (inactive)	19 µM (inactive)	22.5 µM (inactive)	14.3 µM (inactive)		13.4 µM (inactive)	4.25 µM (inactive)	17.3 µM (inactive)	20.6 µM (inactive)	11.1 µM (inactive)	13.4 µM (inactive)	16.6 µM (inactive)	11.5 µM (inactive)	< 0.01 µM (active)	18.7 µM (inactive)
CCn1c(=O)c2c3ccc(OC(C)=O)cc3[nH]c2c2ccc(OC(C)=O)cc21	61.5 µM (inactive)	23.1 µM (inactive)	37.2 µM (inactive)	49.2 µM (inactive)	50.5 µM (inactive)	44.3 µM (inactive)	40.3 µM (inactive)	53.1 µM (inactive)	72.3 µM (inactive)		34.2 µM (inactive)	24 µM (inactive)	42.1 µM (inactive)	35.8 µM (inactive)	15.5 µM (inactive)	36.1 µM (inactive)	43.5 µM (inactive)	35.2 µM (inactive)	10.1 µM (inactive)	29 µM (inactive)
NS(=O)(=O)c1nnc(NC(=O)CCC(=O)O)s1	> 100 µM (inactive)	> 100 µM (inactive)	> 100 µM (inactive)	> 100 µM (inactive)	> 100 µM (inactive)	> 100 µM (inactive)	> 100 µM (inactive)		> 100 µM (inactive)	> 100 µM (inactive)	> 100 µM (inactive)	> 100 µM (inactive)	> 100 µM (inactive)	> 100 µM (inactive)	> 100 µM (inactive)	> 100 µM (inactive)	> 100 µM (inactive)	> 100 µM (inactive)		> 100 µM (inactive)
